Reference: patent US12600717B2, “Tricyclic compounds as inhibitors of KRAS” (Incyte Corporation, priority 2021, dated 2026)

What was measured:
KRAS G12D = KRAS G12D (Homo sapiens, UniProt P01116, G12D); assay: GDP-GTP exchange assay (bodipy-GDP/GppNHp, SOS1), KRAS G12D; format: biochemical; conditions: bodipy-loaded KRAS G12D 2.5 nM, 4 hours pre-incubation with inhibitor, 2 hours after GppNHp/SOS1; read-out: G12D_exchange IC50
Protocol: (§1) The inhibitor potency of the exemplified compounds was determined in a fluorescence based guanine nucleotide exchange assay, which measures the exchange of bodipy-GDP (fluorescently labeled GDP) for GppNHp (Non-hydrolyzable GTP analog) to generate the active state of KRAS in the presence of SOS1 (guanine nucleotide exchange factor). Inhibitors were serially diluted in DMSO and a volume of 0.1 μL was transferred to the wells of a black low volume 384-well plate. 5 μL/well volume of bodipy-loaded KRAS G12D diluted to 2.5 nM in assay buffer (25 mM Hepes pH 7.5, 50 mM NaCl, 10 mM MgCl2 and 0.01% Brij-35) was added to the plate and pre-incubated with inhibitor for 4 hours at ambient temperature. Appropriate controls (enzyme with no inhibitor or with a G12D inhibitor) were included on the plate. The exchange was initiated by the addition of a 5 μL/well volume containing 1 mM GppNHp and 300 nM SOS1 in assay buffer. The 10 μL/well reaction concentration of the bodipy-loaded KRAS G12D, GppNHp, and SOS1 were 2.5 nM, 500 uM, and 150 nM, respectively. The reaction plates were incubated at ambient temperature for 2 hours, a time estimated for complete GDP-GTP exchange in the absence of inhibitor. For the KRAS G12V mutant, similar guanine nucleotide exchange assays were used with 2.5 nM as final concentration for the bodipy loaded KRAS proteins and 3 hours incubation after adding GppNHp-SOS1 mixture. A cyclic peptide described to selectively bind G12D mutant (Sakamoto et al., BBRC 484.3 (2017), 605-611) or internal compounds with confirmed binding were used as positive controls in the assay plates. Fluorescence intensities were measured on a PheraStar plate reader instrument (BMG Labtech) with excitation at 485 nm and emission at 520 nm.
(§2) Either GraphPad prism or Genedata Screener SmartFit was used to analyze the data. The IC50 values were derived by fitting the data to a four parameter logistic equation producing a sigmoidal dose-response curve with a variable Hill coefficient.
(§3) The symbol “†” indicates IC50≤100 nM, “††” indicates IC50>100 nM but ≤1 μM; and “†††” indicates IC50 is >1 μM but ≤5 μM, “††††” indicates IC50 is >5 μM but ≤10 μM. “NA” indicates IC50 not available.

KRAS G12V = KRAS G12V (Homo sapiens, UniProt P01116, G12V); assay: GDP-GTP exchange assay (bodipy-GDP/GppNHp, SOS1), KRAS G12V; format: biochemical; conditions: bodipy-loaded KRAS G12V 2.5 nM, 3 hours incubation after adding GppNHp-SOS1; read-out: G12V_exchange IC50
Protocol: as §1, §2, §3

Sequence of KRAS G12D (P01116 1-188 isoform P01116-2 G12D): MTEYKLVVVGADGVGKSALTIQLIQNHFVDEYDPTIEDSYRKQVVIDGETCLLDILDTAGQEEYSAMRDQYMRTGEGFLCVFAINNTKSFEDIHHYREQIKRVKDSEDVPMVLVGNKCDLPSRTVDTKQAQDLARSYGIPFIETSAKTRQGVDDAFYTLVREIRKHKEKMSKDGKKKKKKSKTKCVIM
Sequence of KRAS G12V (P01116 1-188 isoform P01116-2 G12V): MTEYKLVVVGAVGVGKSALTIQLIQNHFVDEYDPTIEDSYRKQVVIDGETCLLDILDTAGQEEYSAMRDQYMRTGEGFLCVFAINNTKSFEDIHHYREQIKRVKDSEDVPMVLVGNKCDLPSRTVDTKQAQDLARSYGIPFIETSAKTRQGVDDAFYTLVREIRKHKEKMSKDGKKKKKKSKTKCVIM

Structure (SMILES): C[C@H](Oc1nc2c(F)c(-c3cccc4cccc(C#N)c34)c(Cl)cc2c2c1ncn2[C@H]1CCN(C(=O)c2nc[nH]n2)[C@H](CC#N)C1)[C@@H]1CCCN1C [Example 41, 8-(8-chloro-1-((2S,4S)-2-(cyanomethyl)-1-(1H-1,2,4-triazole-3-carbonyl)piperidin-4-yl)-6-fluoro-4-((S)-1-((S)-1-methylpyrrolidin-2-yl)ethoxy)-1H-imidazo[4,5-c]quinolin-7-yl)-1-naphthonitrile]
- IC50 (KRAS G12D): 100 to 1000 nM
- IC50 (KRAS G12V): ≤ 100 nM

Structure (SMILES): CC(=O)N1CC[C@H](n2nnc3c(O[C@@H](C)[C@@H]4CCCN4C)nc4c(F)c(-c5cccc6cccc(C#N)c56)c(Cl)cc4c32)C[C@H]1CC#N [Example 44, 8-(1-((2S,4S)-1-acetyl-2-(cyanomethyl)piperidin-4-yl)-8-chloro-6-fluoro-4-((S)-1-((S)-1-methylpyrrolidin-2-yl)ethoxy)-1H-[1,2,3]triazolo[4,5-c]quinolin-7-yl)-1-naphthonitrile]
- IC50 (KRAS G12D): ≤ 100 nM
- IC50 (KRAS G12V): ≤ 100 nM

Structure (SMILES): CCc1nc2c(N3CC(N(C)C)C3)nc3c(F)c(-c4cc(O)cc5ccccc45)c(C(CC#N)n4cc(CO)cn4)cc3c2n1C1C2CNC1C2 (single isomer, unassigned) [Example 8b, 3-(1-((endo)-2-azabicyclo[2.1.1]hexan-5-yl)-4-(3-(dimethylamino)azetidin-1-yl)-2-ethyl-6-fluoro-7-(3-hydroxynaphthalen-1-yl)-1H-imidazo[4,5-c]quinolin-8-yl)-3-(4-(hydroxymethyl)-1H-pyrazol-1-yl)propanenitrile]
- IC50 (KRAS G12D): ≤ 100 nM
- IC50 (KRAS G12V): 100 to 1000 nM

Structure (SMILES): CN(C)C1CN(c2nc3c(F)c(-c4cc(O)cc5ccccc45)c(CCC#N)cc3c3c2nc(-c2cn(C4CCNCC4)nn2)n3C2C3CNC2C3)C1 (single isomer, unassigned) [Example 26a, 3-(1-((endo)-2-Azabicyclo[2.1.1]hexan-5-yl)-4-(3-(dimethylamino)azetidin-1-yl)-6-fluoro-7-(3-hydroxynaphthalen-1-yl)-2-(1-(piperidin-4-yl)-1H-1,2,3-triazol-4-yl)-1H-imidazo[4,5-c]quinolin-8-yl)propanenitrile]
- IC50 (KRAS G12D): ≤ 100 nM
- IC50 (KRAS G12V): ≤ 100 nM

Structure (SMILES): CN(C)C1CN(c2nc3c(F)c(-c4cc(O)cc5ccccc45)c(CCC#N)cc3c3c2nc(CN2CCCC2=O)n3C2C3CNC2C3)C1 (single isomer, unassigned) [Example 5a, 3-(1-((endo)-2-azabicyclo[2.1.1]hexan-5-yl)-4-(3-(dimethylamino)azetidin-1-yl)-6-fluoro-7-(3-hydroxynaphthalen-1-yl)-2-((2-oxopyrrolidin-1-yl)methyl)-1H-imidazo[4,5-c]quinolin-8-yl)propanenitrile]
- IC50 (KRAS G12D): ≤ 100 nM
- IC50 (KRAS G12V): ≤ 100 nM

Structure (SMILES): CCc1nc2c(C)nc3c(F)c(-c4cc(O)cc5ccccc45)c(CCC#N)cc3c2n1C1C2CNC1C2 (single isomer, unassigned) [Example 23a, 3-(1-((endo)-2-Azabicyclo[2.1.1]hexan-5-yl)-2-ethyl-6-fluoro-7-(3-hydroxynaphthalen-1-yl)-4-methyl-1H-imidazo[4,5-c]quinolin-8-yl)propanenitrile]
- IC50 (KRAS G12D): ≤ 100 nM
- IC50 (KRAS G12V): ≤ 100 nM

Structure (SMILES): CCc1nc2c(-c3ccc(=O)n(CC)c3)nc3c(F)c(-c4cc(O)cc5ccccc45)c(CCC#N)cc3c2n1C1C2CNC1C2 (single isomer, unassigned) [Example 18, 3-(1-((endo)-2-Azabicyclo[2.1.1]hexan-5-yl)-2-ethyl-4-(1-ethyl-6-oxo-1,6-dihydropyridin-3-yl)-6-fluoro-7-(3-hydroxynaphthalen-1-yl)-1H-imidazo[4,5-c]quinolin-8-yl)propanenitrile]
- IC50 (KRAS G12D): ≤ 100 nM
- IC50 (KRAS G12V): ≤ 100 nM

Structure (SMILES): CN(C)C1CN(c2nc3c(F)c(-c4cc(O)cc5ccccc45)c(CCC#N)cc3c3c2nc(C2CC2)n3C2C3CNC2C3)C1 (single isomer, unassigned) [Example 25a, 3-(1-((endo)-2-Azabicyclo[2.1.1]hexan-5-yl)-2-cyclopropyl-4-(3-(dimethylamino)azetidin-1-yl)-6-fluoro-7-(3-hydroxynaphthalen-1-yl)-1H-imidazo[4,5-c]quinolin-8-yl)propanenitrile]
- IC50 (KRAS G12D): ≤ 100 nM
- IC50 (KRAS G12V): 100 to 1000 nM
